Results on 25 compounds are retold here after patent publication US11845760B2, “PRMT5 inhibitors” (AMGEN INC., priority 2020, dated 2023).

Test [1] has as its system HCT116 MTAP null cells. As to the kind of experiment: HCT116 MTAP null cell line proliferation (CellTiter-Glo cell viability, 6 days). Conditions: HCT116-MTAP null, 144 h, HCT116 MTAP null cells, 6 days of treatment, CellTiter-Glo cell viability; read-out: HCT-116 MTAP null IC50. It is filed as cell-based. The procedure, abridged: (§1)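 Viability by CellTiter-Glo after 6 days' drug exposure in wild-type HCT116 and its MTAP-null knockout, with DMSO-only control. Dosing used either 1:3 steps (top 1 or 10 μM) or 22 points in 1:2 steps (top 10 or 50 μM). IC50 taken where the fitted curve crosses 50% of control.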
For orientation: Cellular ATP, detected with luciferase, serves as a proxy for viable cell number.

Test [2] concerns HCT116 WT cells. Description: HCT116 WT cell line proliferation (CellTiter-Glo cell viability, 6 days). It is filed as cell-based. The settings on record: Homo sapiens, HCT-116, 144 h, HCT116 WT (parent) cells, 6 days of treatment, CellTiter-Glo cell viability; read-out: HCT-116 WT IC50. The procedure, abridged: as §1

Usually IC50 stands for the midpoint of a concentration-inhibition curve. In the case of `C[C@@H]1COC[C@H](c2ccc(OC(F)(F)F)cc2)N1C(=O)c1cc2c3c(c(N)nc2cc1Cl)COC3` [Example 530, (4-amino-7-chloro-1,3-dihydrofuro[3,4-c]quinolin-8-yl)((3R,5S)-3-methyl-5-(4-(trifluoromethoxy)phenyl)-4-morpholinyl)methanone], the IC50 in test [1] was 4 nM; in test [2], 60 nM.

Regarding `C[C@@H]1COC[C@H](c2ccc(C(F)(F)F)cc2)N1C(=O)c1cc2c(cc1F)nc(N)c1c2cnn1C` [Example 531, (4-amino-7-fluoro-3-methyl-3H-pyrazolo[3,4-c]quinolin-8-yl)((3R,5S)-3-methyl-5-(4-(trifluoromethyl)phenyl)-4-morpholinyl)methanone], the IC50 in test [1] worked out at 13 nM; in test [2] it was 215 nM.

As to `C[C@@H]1COC[C@H](c2ccc(OC(F)(F)F)cc2)N1C(=O)c1cc2c(cc1F)nc(N)c1c2cnn1C` [Example 532, (4-amino-7-fluoro-3-methyl-3H-pyrazolo[3,4-c]quinolin-8-yl)((3R,5S)-3-methyl-5-(4-(trifluoromethoxy)phenyl)-4-morpholinyl)methanone], the values for the IC50 in test [1] and in test [2] were 19 nM and 400 nM, respectively.

Consider `C[C@@H]1COC[C@H](c2ccc(C(F)(F)F)cc2)N1C(=O)c1ccc2nc(N)c3c(cnn3C)c2c1` [Example 533, (4-amino-3-methyl-3H-pyrazolo[3,4-c]quinolin-8-yl)((3R,5S)-3-methyl-5-(4-(trifluoromethyl)phenyl)-4-morpholinyl)methanone], for which the IC50 was 45 nM in test [1] and 2480 nM in test [2].

Take `C[C@@H]1COC[C@H](c2ccc(OC(F)(F)F)cc2)N1C(=O)c1ccc2nc(N)c3c(cnn3C)c2c1` [Example 534, (4-amino-3-methyl-3H-pyrazolo[3,4-c]quinolin-8-yl)((3R,5S)-3-methyl-5-(4-(trifluoromethoxy)phenyl)-4-morpholinyl)methanone]: the IC50 in test [1] amounted to 44 nM; in test [2] it was 2610 nM.

With `CCOc1ccc([C@H]2COC[C@@H](C)N2C(=O)c2cc3c4c(c(N)nc3cn2)COC4)nn1` [Example 535, (4-amino-1,3-dihydrofuro[3,4-c][1,7]naphthyridin-8-yl)((3S,5R)-3-(6-ethoxy-3-pyridazinyl)-5-methyl-4-morpholinyl)methanone], the IC50 in test [1] came to 64 nM; in test [2], 3160 nM.

On to `C[C@@H]1COC[C@H](c2ccc(OC(F)(F)F)cc2)N1C(=O)c1ccc2nc(N)c3c(c2c1)CO[C@@H]3C` [Example 536, ((3R)-4-amino-3-methyl-1,3-dihydrofuro[3,4-c]quinolin-8-yl)((3R,5S)-3-methyl-5-(4-(trifluoromethoxy)phenyl)-4-morpholinyl)methanone], for which the IC50 came out at 19 nM in test [1] and 646 nM in test [2].

Take `CCOc1ccc([C@H]2COC[C@@H](C)N2C(=O)c2ccc3nc(N)c4c(c3c2)CO[C@@H]4C)nn1` [Example 537, ((3R)-4-amino-3-methyl-1,3-dihydrofuro[3,4-c]quinolin-8-yl)((3S,5R)-3-(6-ethoxy-3-pyridazinyl)-5-methyl-4-morpholinyl)methanone]: the IC50 worked out at 55 nM in test [1] and 2500 nM in test [2].

In the case of `COc1ccc([C@H]2COC[C@@H](C)N2C(=O)c2ccc3nc(N)c4c(cnn4C)c3c2)nn1` [Example 538, (4-amino-3-methyl-3H-pyrazolo[3,4-c]quinolin-8-yl)((3S,5R)-3-(6-methoxy-3-pyridazinyl)-5-methyl-4-morpholinyl)methanone], the IC50 in test [1] was determined as 282 nM; in test [2], 13300 nM.

`COc1ccc([C@H]2COC[C@@H](C)N2C(=O)c2cc3c(cc2F)nc(N)c2c3cnn2C)nn1` [Example 539, (4-amino-7-fluoro-3-methyl-3H-pyrazolo[3,4-c]quinolin-8-yl)((3S,5R)-3-(6-methoxy-3-pyridazinyl)-5-methyl-4-morpholinyl)methanone]: the 50% inhibitory concentration (IC50) in test [1] is 27 nM; in test [2], 1270 nM.

In the case of `COc1ccc([C@H]2COC[C@@H](C)N2C(=O)c2cc3c4c(c(N)nc3cc2F)COC4)nn1` [Example 540, (4-amino-7-fluoro-1,3-dihydrofuro[3,4-c]quinolin-8-yl)((3S,5R)-3-(6-methoxy-3-pyridazinyl)-5-methyl-4-morpholinyl)methanone], the IC50 in test [1] is 19 nM; in test [2], 579 nM.

Turning to `Cn1ncc2c3cc(C(=O)N4CCOC[C@@H]4c4ccc(S(F)(F)(F)(F)F)cc4)c(F)cc3nc(N)c21` [Example 544, (4-amino-7-fluoro-3-methyl-3H-pyrazolo[3,4-c]quinolin-8-yl)((3S)-3-(4-(pentafluoro-lambda~6~- sulfanyl)phenyl)-4-morpholinyl)methanone], the IC50 in test [1] is 24 nM; in test [2] it was 1010 nM.

Consider `Cn1ncc2c(N)nc3cc(F)c(C(=O)N4CCOC[C@@H]4c4ccc(F)cc4)cc3c21` [Example 545, (4-amino-7-fluoro-1-methyl-1H-pyrazolo[4,3-c]quinolin-8-yl)((3S)-3-(4-fluorophenyl)-4-morpholinyl)methanone], for which the IC50 in test [1] was determined as 31 nM; in test [2], 1430 nM.

With `Cn1ncc2c(N)nc3cc(Cl)c(C(=O)N4CCOC[C@@H]4c4ccc(C(F)(F)F)cc4)cc3c21` [Example 546, (4-amino-7-chloro-1-methyl-1H-pyrazolo[4,3-c]quinolin-8-yl)((3S)-3-(4-(trifluorometliyl)phenyl)-4-morpholinyl)methanone], the IC50 in test [1] came to 13 nM; in test [2], 198 nM.

For `Cn1ncc2c(N)nc3cc(C(F)(F)F)c(C(=O)N4CC[C@H](c5ccc(C(F)(F)F)cc5)C4)cc3c21` [Example 547, (4-amino-1-methyl-7-(trifluoromethyl)-1H-pyrazolo[4,3-c]quinolin-8-yl)((3R)-3-(4-(trifluoromethyl)phenyl)-1-pyrrolidinyl)methanone], the IC50 turned out to be 396 nM in test [1] and 3850 nM in test [2].

On to `Cn1ncc2c(N)nc3cc(C(F)(F)F)c(C(=O)N4CCOC[C@@H]4c4ccc(C(F)(F)F)cc4)cc3c21` [Example 548, (4-amino-1-methyl-7-(trifluoromethyl)-1H-pyrazolo[4,3-c]quinolin-8-yl)((3S)-3-(4-(trifluoromethyl)phenyl)-4-morpholinyl)methanone], for which the IC50 in test [1] amounted to 269 nM; in test [2] it was 8110 nM.

In the case of `Nc1nc2cnc(C(=O)N3CCOC[C@@H]3c3ccc(C(F)(F)F)nn3)cc2c2c1COC2` [Example 549, (4-amino-1,3-dihydrofuro[3,4-c][1,7]naphthyridin-8-yl)((3S)-3-(6-(trifluoromethyl)-3-pyridazinyl)-4-morpholinyl)methanone], the results for the half-inhibitory concentration (IC50) in test [1] and in test [2] were 558 nM and 21500 nM, respectively.

Turning to `C[C@@H]1COC[C@H](c2ccc(OC3CC3)nn2)N1C(=O)c1cc2c3c(c(N)nc2cn1)COC3` [Example 550, (4-amino-1,3-dihydrofuro[3,4-c][1,7]naphthyridin-8-yl)((3S,5R)-3-(6-(cyclopropyloxy)-3-pyridazinyl)-5-methyl-4-morpholinyl)methanone], the IC50 in test [1] was 73 nM; in test [2], 3150 nM.

For `COc1ccc([C@H]2COC[C@@H](C)N2C(=O)c2cc3c(cc2F)nc(N)c2cnn(C)c23)nn1` [Example 551, (4-amino-7-fluoro-1-methyl-1H-pyrazolo[4,3-c]quinolin-8-yl)((3S,5R)-3-(6-methoxy-3-pyridazinyl)-5-methyl-4-morpholinyl)methanone], the IC50 in test [1] was 6 nM; in test [2], 150 nM.

Take `COc1ccc([C@H]2COC[C@@H](C)N2C(=O)c2cc3c4c(c(N)nc3cc2F)[C@@H](C)OC4)nn1` [Example 552, ((3R)-4-amino-7-fluoro-3-methyl-1,3-dihydrofuro[3,4-c]quinolin-8-yl)((3S,5R)-3-(6-methoxy-3-pyridazinyl)-5-methyl-4-morpholinyl)methanone]: the IC50 in test [1] amounted to 13 nM; in test [2], 369 nM.

`Cn1ncc2c(N)nc3ccc(C(=O)N4CCOC[C@@H]4c4ccc(OC(F)F)nn4)cc3c21` [Example 553, (4-amino-1-methyl-1H-pyrazolo[4,3-c]quinolin-8-yl)((3S)-3-(6-(difluoromethoxy)-3-pyridazinyl)-4-morpholinyl)methanone]: the values for the IC50 in test [1] and in test [2] were 513 nM and 32500 nM, respectively.

Consider `C[C@@H]1COC[C@H](c2ccc(OC(F)F)nn2)N1C(=O)c1cc2c3c(c(N)nc2cn1)COC3` [Example 554, (4-amino-1,3-dihydrofuro[3,4-c][1,7]naphthyridin-8-yl)((3S,5R)-3-(6-(difluoromethoxy)-3-pyridazinyl)-5-methyl-4-morpholinyl)methanone], for which the IC50 was found to be 28 nM in test [1] and 1100 nM in test [2].

Regarding `C[C@@H]1COC[C@H](c2ccc(C(F)(F)F)nn2)N1C(=O)c1cc2c3c(c(N)nc2cn1)COC3` [Example 555, (4-amino-1,3-dihydrofuro[3,4-c][1,7]naphthyridin-8-yl)((3R,5S)-3-methyl-5-(6-(trifluoromethyl)-3-pyridazinyl)-4-morpholinyl)methanone], the IC50 in test [1] turned out to be 41 nM; in test [2], 1230 nM.

`Cn1ncc2c(N)nc3cc(F)c(C(=O)N4CCOC[C@@H]4c4ccc(OC(F)F)nn4)cc3c21` [Example 556, (4-amino-7-fluoro-1-methyl-1H-pyrazolo[4,3-c]quinolin-8-yl)((3S)-3-(6-(difluoromethoxy)-3-pyridazinyl)-4-morpholinyl)methanone]: the IC50 in test [1] amounted to 39 nM; in test [2], 3580 nM.

In the case of `Cn1ncc2c3cc(C(=O)N4CCOC[C@@H]4c4ccc(OC(F)F)nn4)c(F)cc3nc(N)c21` [Example 557, (4-amino-7-fluoro-3-methyl-3H-pyrazolo[3,4-c]quinolin-8-yl)((3S)-3-(6-(difluoromethoxy)-3-pyridazinyl)-4-morpholinyl)methanone], the values for the IC50 in test [1] and in test [2] were 697 nM and 37100 nM, respectively.
